How the values were obtained:
[1] = TBS buffer, measured on FluoroMax, values on the literature; cited from earlier work
[2] = 0.01M NaOH, on the literature; cited from earlier work
Fluorescence lifetime = type: physicochemical; settings: 50 mM PBS (pH7.0), 3×10^−4M, room temperature, excitation 415 nm, measured at 500 nm
Description: Boc-badAla-OH prepared in Example 2 was dissolved in 50 mM PBS (pH7.0) in a concentration of 3×10^−4M, and fluorescence intensity was measured at room temperature at 500 nm, setting the excitation wavelength at 415 nm of blue laser from a simple-type beam system, using Hamamatsu “microchannel photomultiplier tube” supplied by Hamamatsu Photonics K.K. which was cooled to −30° C., and then fluorescence lifetime was measured.
As a result, the obtained fluorescence lifetime was τ=16.6 nanoseconds.
While the lifetime of BODIPY, a commercial product, was 5.7 nanoseconds (MeOH) on the literature, and that of FITC was 4.1 nanoseconds (0.01M NaOH) on the literature. The other primary spectroscopic properties of fluorescent probes were listed on the homepage of IOM GmbH (see, www.iom-berlin.de).

Photostability = type: physicochemical; settings: water, 1.2×10^−6M, room temperature, continuous 468 nm irradiation for an hour
Description: Boc-badAla-OH prepared in Example 2 was dissolved in water in a concentration of 1.2×10^−6M, and photostability was examined at room temperature using ISA “FluoroMax-2” analyzer, irradiating a beam of 468 nm excitation wavelength continuously for an hour. As a result, […] an hour after the irradiation, it held 95% fluorescence intensity of that at the start of the experiment (FIG. 6). […] On the other hand, values of commercial products BODIPY and FITC shown on the literature, obtained by dissolving them respectively in TBS buffer for measurement on FluoroMax, were respectively 88% and 85%.

Absorption spectrum = type: physicochemical; settings: in ethanol, water and ethanol/water (6:4), 2.3×10^−5M, room temperature
Description: Boc-badAla-OH prepared in Example 2 was dissolved respectively in ethanol, water and a mixture of ethanol and water (6:4) in a concentration of 2.3×10^−5M, and their absorption spectra were measured at room temperature using JASCO “V560” supplied by JASCO Corporation.

Row | SMILES | photostability (fluorescence intensity held) [1] | fluorescence lifetime [2] | fluorescence lifetime τ (Fluorescence lifetime) | fluorescence intensity held relative to start of experiment (Photostability) | maximum absorption wavelength (Absorption spectrum)
1 | O=C1OC2(c3ccc(O)cc3Oc3cc(O)ccc32)c2ccc(N=C=S)cc21 [FITC] | 85% | 4.1 nanoseconds |  |  | 
2 | CC(C)(C)OC(=O)NC(Cc1ccc2[nH]c3cc4ccccc4cc3c(=O)c2c1)C(=O)O (centres unmarked) [Boc-badAla-OH] |  |  | 16.6 nanoseconds | 95% | around 460 nm

Reference: patent US7928236B2, “Fluorescent amino acid derivatives” (National University Corporation Okayama University, priority 2005, dated 2011)
